What was measured:
[1] = target: T1, h-CD22 (Siglec-2) (Homo sapiens, UniProt P20273); test: intrinsic tryptophan fluorescence titration; STD NMR and tr-NOESY; type: binding
T1 sequence (P20273 20-687 limits assumed): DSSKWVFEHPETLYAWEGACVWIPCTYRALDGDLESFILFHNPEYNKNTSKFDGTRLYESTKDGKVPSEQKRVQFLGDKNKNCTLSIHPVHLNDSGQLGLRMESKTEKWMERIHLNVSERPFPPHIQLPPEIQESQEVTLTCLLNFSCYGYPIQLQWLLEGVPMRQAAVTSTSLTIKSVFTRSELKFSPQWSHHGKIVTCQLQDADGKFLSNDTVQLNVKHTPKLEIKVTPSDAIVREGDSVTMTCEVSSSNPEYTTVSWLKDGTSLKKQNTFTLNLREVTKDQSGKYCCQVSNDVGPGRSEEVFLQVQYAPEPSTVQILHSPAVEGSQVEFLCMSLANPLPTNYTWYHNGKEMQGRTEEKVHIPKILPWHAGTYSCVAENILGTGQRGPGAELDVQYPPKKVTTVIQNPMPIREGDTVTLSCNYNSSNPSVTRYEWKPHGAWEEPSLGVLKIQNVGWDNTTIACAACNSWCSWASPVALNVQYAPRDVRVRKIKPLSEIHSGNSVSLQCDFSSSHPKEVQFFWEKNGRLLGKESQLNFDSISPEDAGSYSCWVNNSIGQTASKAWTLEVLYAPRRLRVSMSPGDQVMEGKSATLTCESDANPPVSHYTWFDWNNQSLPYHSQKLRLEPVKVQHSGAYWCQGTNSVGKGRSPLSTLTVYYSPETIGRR
Description: intrinsic tryptophan fluorescence titration; STD NMR and tr-NOESY on h-CD22 (Siglec-2) | thus proving the complex formation.

[2] = target: T1, h-CD22 (Siglec-2); test: SPR (CD22 immobilized on protein A chip); STD NMR; type: binding

Row | Kd [2] [µM] | SMILES | Kd [1] [µM]
1 |  | CC(=O)N[C@H]1[C@H]([C@H](O)[C@H](O)CO)OC(OC[C@H]2O[C@@H]3OC4=C(S[C@@H]3[C@@H](O)[C@H]2O)C(=O)N[C@H](C(=O)O)C4)(C(=O)O)C[C@@H]1O (some centres unmarked) [compound 1, Sialyl-TnThr analogue] | 2 ± 0.1
2 | 13.5 ± 2.6 | CC(=O)N[C@H]1[C@H]([C@H](O)[C@H](O)CNC(=O)c2ccc(-c3ccccc3)cc2)OC(OC[C@H]2O[C@@H]3OC4=C(S[C@@H]3[C@@H](O)[C@H]2O)C(=O)N[C@H](C(=O)O)C4)(C(=O)O)C[C@@H]1O (some centres unmarked) [compound 2, sialo-derivative 2] | 
